Data on 26 compounds can be found in ChEMBL document CHEMBL4689842, “EUbOPEN Chemogenomics Library wave 1” (2021).

Structures are written as SMILES.

This data set concerns U2OS. The data set is described as follows: Incucyte cell viability with U2OS. Also: filed as whole numbers so only -1 and 0 and 1 occur. It is filed as toxicity, cell-based. To be noted: human, 10 µM, compound concentration 10 uM.
The mark [1] stands for this setting: 0 h, replicate number 1, timepoint 0 hours.
Setting [2] is: 12 h, replicate number 2, timepoint 12 hours.
[3] abbreviates: 18 h, replicate number 1, timepoint 18 hours.
The mark [4] stands for this setting: 24 h, replicate number 1, timepoint 24 hours.
Setting [5] is: 6 h, replicate number 2, timepoint 6 hours.
The mark [6] stands for this setting: 12 h, replicate number 1, timepoint 12 hours.
[7] abbreviates: 18 h, replicate number 2, timepoint 18 hours.
[8] abbreviates: 24 h, replicate number 2, timepoint 24 hours.
Where [9] appears, read: 0 h, replicate number 2, timepoint 0 hours.
Setting [10] is: 6 h, replicate number 1, timepoint 6 hours.

Turning to `CC(C)c1noc(N2CCC(COc3ccc(-c4ccc(S(C)(=O)=O)cc4)nc3)CC2)n1` [GSK-1292263], the “Growth Rate” value reads like this: under setting [1], 0; under setting [2], 1; under setting [3], 1; under setting [4], 1.

Turning to `CC(C)OC(=O)N1CCC(Oc2ncnc3c2cnn3-c2ccc(S(C)(=O)=O)cc2F)CC1`, the “Growth Rate” value runs as follows: under setting [1], 0; under setting [5], 0; under setting [6], 1; under setting [2], 0; under setting [3], 1; under setting [7], 0. Also, the “Growth Rate” value is, setting by setting: under setting [4], 1; under setting [8], 0.

Take `C=CC(=O)Nc1ccc2[nH]c(=O)n(C3CCN(Cc4ccc(-c5nc6cc[nH]c(=O)c6cc5-c5ccccc5)cc4)CC3)c2c1` [Borussertib]: the “Growth Rate” value by setting is: under setting [9], 1; under setting [10], 1; under setting [6], 1; under setting [3], 1; under setting [4], 1; under setting [8], 0.

With `CNCc1ccccc1-c1csc([C@@H](C)Nc2nc(C)nc3cc(OC)c(OC)cc23)c1` [BAY-293], the “Growth Rate” value reads like this: under setting [1], 0; under setting [10], 0; under setting [5], 1; under setting [6], 0; under setting [3], 0; under setting [4], 0.

For the compound `CCc1ccc(OCc2ccccc2C(=O)Nc2ccc3nc(C)cc(N)c3c2)cc1.Cl`, the “Growth Rate” value runs as follows: under setting [1], 0; under setting [10], 0; under setting [6], 0; under setting [3], 0; under setting [4], 0.

For the compound `C=CC(=O)Nc1cccc(Oc2nc(Nc3ccc(N4CCN(C)CC4)cc3OC)ncc2Cl)c1`, the “Growth Rate” value worked out at 0 under setting [1]; 0 under setting [10]; 0 under setting [6]; 0 under setting [3]; 0 under setting [4].

As to `CC1=C(C(=O)Nc2cc3cn[nH]c3cc2F)C(c2ccc(C(F)(F)F)cc2)CC(=O)N1` (stereo unspecified), the “Growth Rate” value by setting is: under setting [3], 1; under setting [4], 1.

On to `CCc1nn(CCCN2CCN(c3cccc(Cl)c3)CC2)c(=O)n1CCOc1ccccc1.Cl` [NEFAZODONE HYDROCHLORIDE], for which the “Growth Rate” value by setting is: under setting [10], 1; under setting [6], 0; under setting [3], 1; under setting [7], 0; under setting [4], 0.

As to `COc1cc(Nc2nccc(-c3cnn4nc(OC)ccc34)n2)cc(C(F)(F)F)c1`, the “Growth Rate” value by setting is: under setting [1], 1; under setting [9], 0; under setting [10], 0; under setting [6], 0; under setting [3], 0; under setting [4], 0.

Regarding `Cc1nc(N2CC[C@H](O)C2)ncc1-c1cc(C(F)(F)F)cc2[nH]ncc12`, the “Growth Rate” value reads like this: under setting [1], 1; under setting [10], 0; under setting [5], 1; under setting [6], 1; under setting [3], 0; under setting [7], 1. In addition, the “Growth Rate” value under setting [4] is listed as 0.

As to `CC(C)(C)NC[C@H](O)COc1nsnc1N1CCOCC1` [TIMOLOL], the “Growth Rate” value by setting is: under setting [1], 0; under setting [5], 1; under setting [2], 1; under setting [3], 1; under setting [4], 1.

For `COc1ccc(-c2ccc3ncc4c(c3c2)n(-c2ccc(N3CCNCC3)c(C(F)(F)F)c2)c(=O)n4C)cn1.O=C(O)/C=C\C(=O)O` [BGT-226], the “Growth Rate” value amounted to 0 under setting [1]; 0 under setting [10]; 0 under setting [6]; 0 under setting [3]; 0 under setting [4].

As to `CNC(=O)Nc1ccc(-c2nc(N3CC4CCC(C3)O4)c3cnn(C4CCC5(CC4)OCCO5)c3n2)cc1`, the “Growth Rate” value by setting is: under setting [9], 0; under setting [10], 1; under setting [6], 0; under setting [3], 0; under setting [7], 1; under setting [4], 0. Besides, the “Growth Rate” value under setting [8] stood at 1.

Take `O=c1cc(N2CCOCC2)oc2c(-c3cccc4c3sc3ccccc34)cccc12`: the “Growth Rate” value reads like this: under setting [1], 0; under setting [10], 0; under setting [5], 1; under setting [6], 0; under setting [2], 1; under setting [3], 0. For the same compound, under setting [4], the “Growth Rate” value was 0.

For `Cc1ccc2c(c1)c1c(n2CCc2ccc(C)nc2)CCN(C)C1` [LATREPIRDINE], the “Growth Rate” value is recorded as 0 under setting [1]; 0 under setting [5]; 1 under setting [6]; 0 under setting [3]; 1 under setting [4]; 0 under setting [8].

On to `Cc1cc(NC(=O)c2cccc(S(F)(F)(F)(F)F)c2)cc(-n2ccn3nc(-c4cccnc4)cc23)c1` [BAY-309], for which the “Growth Rate” value was 0 under setting [9]; 0 under setting [10]; 0 under setting [6]; 0 under setting [3]; 0 under setting [4].

For `Cl.O=C(O)c1cc(-c2ccc(C3CCNCC3)cc2)c2ccc(-c3ccc(C(F)(F)F)cc3)cc2c1`, the “Growth Rate” value under setting [1] came to 1; the “Growth Rate” value under setting [9] was found to be 0; the “Growth Rate” value under setting [10] amounted to 0; the “Growth Rate” value under setting [6] is listed as 0; the “Growth Rate” value under setting [3] worked out at 0; the “Growth Rate” value under setting [4] was determined as 0.

As to `CCCSc1nc(N[C@@H]2C[C@H]2c2ccc(F)c(F)c2)c2nnn([C@@H]3C[C@H](OCCO)[C@@H](O)[C@H]3O)c2n1` [TICAGRELOR], the “Growth Rate” value by setting is: under setting [1], 0; under setting [10], 0; under setting [6], 0; under setting [3], 0; under setting [4], 0.

For the compound `CC(C)CC(=O)Nc1[nH]nc2c1CN(C(=O)C1CCN(C)CC1)C2(C)C` [PHA-793887], the “Growth Rate” value runs as follows: under setting [1], 1; under setting [9], 0; under setting [10], 0; under setting [6], 0; under setting [3], 0; under setting [4], 0.

As for `C=CC(=O)Nc1cccc(Sc2nc(Nc3ccc(N4CCN(C)CC4)cc3)ncc2Cl)c1`, the “Growth Rate” value reads like this: under setting [1], 0; under setting [10], 0; under setting [6], 0; under setting [3], 0; under setting [4], 0.

For `Cc1cccc(CN2CCN(C(c3ccccc3)c3ccc(Cl)cc3)CC2)c1.Cl.Cl` (stereo unspecified), the “Growth Rate” value under setting [1] was 0; the “Growth Rate” value under setting [9] is reported as 1; the “Growth Rate” value under setting [5] is 0; the “Growth Rate” value under setting [2] is on record as 0; the “Growth Rate” value under setting [3] was determined as 1; the “Growth Rate” value under setting [7] was 0. The “Growth Rate” value is, setting by setting: under setting [4], 1; under setting [8], 0.

For `CN(c1ccccc1CNc1nc(Nc2ccc3c(c2)CC(=O)N3)ncc1C(F)(F)F)S(C)(=O)=O`, the “Growth Rate” value turned out to be 0 under setting [1]; 0 under setting [10]; 0 under setting [6]; 0 under setting [3]; 0 under setting [4].

With `O=c1[nH]c2ccccc2n1C1CCN(Cc2ccc(-c3[nH]c4cc5ncnc5cc4nc3-c3ccccc3)cc2)CC1`, the “Growth Rate” value worked out at 0 under setting [1]; 0 under setting [6]; 1 under setting [2]; 0 under setting [3]; 1 under setting [7]; 0 under setting [4]. In addition, the “Growth Rate” value under setting [8] worked out at 1.

Turning to `Cc1c[nH]c2nccc(Oc3c(F)cc(Nc4cc(Cl)nc(N)n4)cc3F)c12` [BAY-549], the “Growth Rate” value is 0 under setting [9]; 0 under setting [10]; 0 under setting [6]; 0 under setting [3]; 0 under setting [4].

With `O=C(c1cc2c(cc1F)OC(c1ccc(F)cc1)(c1ccc(Cl)cc1Cl)O2)N1CCOCC1` (stereo unspecified), the “Growth Rate” value under setting [1] stood at 0; the “Growth Rate” value under setting [5] came out at 1; the “Growth Rate” value under setting [6] is 0; the “Growth Rate” value under setting [3] is on record as 0; the “Growth Rate” value under setting [4] was 0.

As for `CN1CCN(Cc2ccc(Nc3ncc(Cl)c(Nc4ccccc4S(=O)(=O)N(C)C)n3)cc2)CC1` [DUBERMATINIB], the “Growth Rate” value under setting [1] was 0; the “Growth Rate” value under setting [10] came to 1; the “Growth Rate” value under setting [6] came out at 0; the “Growth Rate” value under setting [3] stood at 0; the “Growth Rate” value under setting [4] was found to be 0.
